Test results: patent publication US10919896B2, “Preparation and uses of pyrimidinone derivatives” (Cancer Research Technology Limited, priority 2016, dated 2021)
Structures can show the parent of a compound that is named as a salt.

Target: Cdc7/ASK (Homo sapiens, UniProt O00311)
Experiment: Cdc7 Biochemical Assay Method 1: 384 well ELISA, whole protein substrate MCM2, antibody against Phospho MCM2 (S53)
Set-up: purchased
Conditions: 2 μM ATP, read-out: Biochemical Method 1 (pIC50) (converted)
Description: This protocol describes a method for assaying Cdc7/ASK for activity. The assay is a 384 well ELISA assay, utilising a whole protein substrate (MCM2) and an antibody against Phospho MCM2 (S53). This site is thought to be specific to Cdc7/ASK phosphorylation and the assay has been validated using knockout mutants. Reagents • TBS: 25 mM Tris pH 7.2, 150 mM NaCl. (Dilute 10× stock by 1:10). • Wash Buffer: TBS+0.05% Tween 20. (Add 100 mL 1 M Tris pH 7.2, 120 mL 5 M NaCl and 2 mL 100% Tween 20 per 4 L). • Kinase Reaction Buffer: 50 mM Tris-HCl pH 8.5, 10 mM MgCl2, 1 mM DTT. (Dilute 10× stock by 1:10 and add 100 μL 1M DTT per 100 mL prior to assay). • Diethanolamine Buffer: 1 M diethanolamine pH 9.8, 0.5 mM MgCl2. • Stop Solution: 1 M NaOH. • MCM2 was expressed and purified in-house and used in the assay at a final assay concentration of 436 ng/well. • Cdc7/ASK is purchased from commercial suppliers and used in the assay at a final assay concentration of 37.97 ng/well or 20.63 nM. • ATP used as a final assay concentration of 2 μM. • Primary Antibody: Rabbit anti-Phospho MCM2 (S53 Antibody (BL3353)), is purchased from commercial suppliers at 0.2 mg/mL and used at a final assay concentration by diluting 1:800 in TBS. • Secondary Antibody: Anti-Rabbit/AP Antibody is supplied is purchased from commercial suppliers at 1 mg/mL and used at a final assay concentration by diluting 1:2000 in TBS. • Development Reagent: Dissolve one 20 mg PNPP tablet (Sigma, product […], 20 mg per tablet) per 20 mL diethanolamine Buffer (or one 5 mg PNPP tablet per 5 mL diethanolamine buffer). Cover in foil and leave shaking on a roller shaker at room temperature for up to an hour to dissolve. Methods • 1. Add 20 μL 1× working stock of Substrate (MCM2) in TBS to all wells of a clear, 384 well, Nickel-chelate microplate to give a final concentration of […]. Incubate at room temperature for at least 1 hour. Plates can be pre-coated for 1 hour and stored at 4° C. for up to 8 days. • 2. Wash with TBS+0.05% Tween 20 (80 μL×3). • 3. Add 2 μL 10× test compounds, including the positive control, in 40% DMSO/water to 'test' wells. Add 2 μL 40% DMSO/water to 'control' and 'blank' wells. The final DMSO concentration will be 4%. • 4. Add 13 μL CDC7/ASK Kinase (1.5× stock) in Kinase Reaction Buffer to 'test' and 'control' wells to give a final concentration of […]. Add 13 μL Kinase Reaction Buffer to 'blank' wells. • 5. Add 5 μL ATP (4× stock) in Kinase Reaction Buffer to all wells to give a final concentration of 2 μM. • 6. Incubate at room temperature for 90 minutes. • 7. Wash with TBS+0.05% Tween 20 (80 μL×3). • 8. Add 20 μL 1× working solution of Primary Antibody in TBS to all wells. Incubate at room temperature for 30 minutes. • 9. Wash with TBS+0.05% Tween 20 (80 μL×3). • 10. Add 20 μL 1× working solution of Secondary Antibody in TBS to all wells. Incubate at room temperature for 30 minutes. • 11. Wash with TBS+0.05% Tween 20 (80 μL×3). • 12. Add 20 μL 1× Development Reagent to all wells. • 13. Incubate at room temperature for 2 hours. Stop the reaction by adding 20 μL Stop Solution to all wells and record Absorbance on a Pherastar plate reader. Percentage inhibition values were calculated from absorbance values, using the no compound (DMSO) and no enzyme control values as 0% and 100% inhibition, respectively. IC50 determination was performed with ExcelFit software (IDBS) using curve fit 205. Z' factors were determined for each plate tested and were all above 0.5. Method 2

Cdc7/ASK, sequence (O00311 whole entry): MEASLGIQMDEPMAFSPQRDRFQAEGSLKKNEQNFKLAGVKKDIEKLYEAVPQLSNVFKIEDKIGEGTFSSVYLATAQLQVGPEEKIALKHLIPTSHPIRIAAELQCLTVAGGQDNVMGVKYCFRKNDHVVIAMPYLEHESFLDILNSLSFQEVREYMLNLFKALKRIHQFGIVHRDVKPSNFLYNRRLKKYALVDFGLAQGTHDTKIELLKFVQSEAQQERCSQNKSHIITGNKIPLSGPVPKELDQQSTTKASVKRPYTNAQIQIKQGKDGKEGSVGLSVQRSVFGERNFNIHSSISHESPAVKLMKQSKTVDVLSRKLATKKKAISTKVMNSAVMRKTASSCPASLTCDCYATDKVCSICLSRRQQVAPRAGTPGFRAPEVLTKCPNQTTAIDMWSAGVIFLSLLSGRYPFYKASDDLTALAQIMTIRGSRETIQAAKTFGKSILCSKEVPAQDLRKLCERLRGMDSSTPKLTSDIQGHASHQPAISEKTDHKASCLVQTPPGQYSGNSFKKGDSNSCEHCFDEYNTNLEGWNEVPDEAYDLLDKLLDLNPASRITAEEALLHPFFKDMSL
Cdc7/ASK, sequence (Q9UBU7 whole entry partner): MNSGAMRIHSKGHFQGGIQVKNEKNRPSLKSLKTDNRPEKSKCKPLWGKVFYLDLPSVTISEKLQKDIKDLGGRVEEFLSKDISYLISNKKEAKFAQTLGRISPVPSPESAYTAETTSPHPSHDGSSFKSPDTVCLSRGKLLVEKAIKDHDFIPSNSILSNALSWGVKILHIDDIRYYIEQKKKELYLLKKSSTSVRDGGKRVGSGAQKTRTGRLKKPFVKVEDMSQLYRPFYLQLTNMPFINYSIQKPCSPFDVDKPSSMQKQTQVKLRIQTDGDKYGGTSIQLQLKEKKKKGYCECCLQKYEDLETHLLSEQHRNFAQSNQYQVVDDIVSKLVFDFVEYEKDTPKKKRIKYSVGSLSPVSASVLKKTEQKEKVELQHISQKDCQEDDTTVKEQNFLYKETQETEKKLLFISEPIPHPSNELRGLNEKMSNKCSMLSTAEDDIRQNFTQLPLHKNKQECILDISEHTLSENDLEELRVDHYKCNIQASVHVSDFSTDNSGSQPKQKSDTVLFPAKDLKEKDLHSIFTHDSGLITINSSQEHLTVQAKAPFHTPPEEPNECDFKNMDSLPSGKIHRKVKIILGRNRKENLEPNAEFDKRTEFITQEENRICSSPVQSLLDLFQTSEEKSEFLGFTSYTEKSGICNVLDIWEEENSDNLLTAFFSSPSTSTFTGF

SMILES	IC50
O=c1[nH]c(-c2ccncc2)nc(C2=CCOCC2)c1Cl [Compound 404, 5-chloro-4-(3,6-dihydro-2H-pyran-4-yl)-2-(4-pyridyl)-1H-pyrimidin-6-one]	166 nM
CC(=O)c1ccc(C(=O)N2CCC(c3nc(-c4ccncc4)[nH]c(=O)c3Cl)CC2)cc1 [Compound 60]	1.91 nM
CC(C)(C)N1CCN(c2nc(-c3ccncc3)[nH]c(=O)c2Cl)CC1 [Compound 155]	977 nM
O=C1CCN(c2nc(-c3ccncc3)[nH]c(=O)c2Cl)CCN1 [Compound 117]	5.25 nM
O=c1[nH]c(-c2ccncc2)nc(C2CCNC2)c1Cl (stereo not drawn) [Compound 11]	5.25 nM
CN(C)C(=O)CN1CCN(c2nc(-c3ccncc3)[nH]c(=O)c2Cl)CC1 [Compound 110]	661 nM
O=C(c1cscn1)N1CCC(c2nc(-c3ccncc3)[nH]c(=O)c2Cl)CC1 [Compound 57]	3.47 nM
CS(=O)(=O)N1CCN(c2nc(-c3ccncc3)[nH]c(=O)c2Cl)CC1 [Compound 43]	3.16 nM
CC1(c2nc(-c3ccncc3)[nH]c(=O)c2Cl)CCOCC1 [Compound 9]	3.39 nM
O=c1[nH]c(-c2ccncc2)nc(N2CCCNCC2)c1Cl [Compound 115]	229 nM
COc1cccc(C2CN(c3nc(-c4ccncc4)[nH]c(=O)c3Cl)CCN2)c1 (stereo not drawn) [Compound 179]	23.4 nM
O=C(c1cn[nH]c1)N1CCC(c2nc(-c3ccncc3)[nH]c(=O)c2Cl)CC1 [Compound 68]	2.69 nM
O=C(c1ccccn1)N1CCC(c2nc(-c3ccncc3)[nH]c(=O)c2Cl)CC1 [Compound 45]	8.71 nM
CC(C)(C)OC(=O)N1CCC(c2nc(-c3ccncc3)[nH]c(=O)c2Cl)CC1 [Compound 1, tert-Butyl 4-[5-chloro-6-oxo-2-(4-pyridyl)-1H-pyrimidin-4-yl]piperidine-1-carboxylate]	70.8 nM
O=c1[nH]c(-c2ccncc2)nc(N2CCCCC2)c1Cl [Compound 26, 5-chloro-4-(1-piperidyl)-2-(4-pyridyl)-1H-pyrimidin-6-one]	6.76 nM
O=c1[nH]c(-c2ccnc(F)c2)nc(C2CCOCC2)c1F [Compound 17]	2.34 nM

Results, then the compound that gave them:

IC50	SMILES
33.9 nM	N#CCN1CCN(c2nc(-c3ccncc3)[nH]c(=O)c2Cl)CC1 [Compound 148]
13.2 nM	CC(C)C(=O)N1CCC(c2nc(-c3ccncc3)[nH]c(=O)c2Cl)CC1 [Compound 34, 5-chloro-4-[1-(2-methylpropanoyl)-4-piperidyl]-2-(4-pyridyl)-1H-pyrimidin-6-one]
13.2 nM	O=c1[nH]c(-c2ccncc2)nc(N2CCN3CC(F)(F)C[C@H]3C2)c1Cl [Compound 149]
20 nM	O=c1[nH]c(-c2ccncc2)nc(C2CCOC2)c1Cl (stereo not drawn) [Compound 12]
30.9 nM	O=c1[nH]c(-c2ccncc2)nc(N2CCN[C@H](CCO)C2)c1Cl [Compound 174]
3.63 nM	O=c1[nH]c(-c2ccncc2)nc(C2CCCNC2)c1Cl (stereo not drawn) [Compound 8]
12.9 nM	O=c1[nH]c(-c2ccncc2)nc(C2CCCOC2)c1Cl (stereo not drawn) [Compound 16]
25.7 nM	N#Cc1c(C2CCOCC2)nc(-c2ccncc2)[nH]c1=O [Compound 403, 6-oxo-2-(4-pyridyl)-4-tetrahydropyran-4-yl-1H-pyrimidine-5-carbonitrile]
0.794 nM	O=c1[nH]c(-c2ccnc(F)c2)nc(C2(F)CCOCC2)c1Cl [Compound 18]
1260 nM	CN(C)C1CCN(c2nc(-c3ccncc3)[nH]c(=O)c2Cl)C1 (stereo not drawn) [Compound 29]
1.12 nM	O=C(c1ccnnc1)N1CCC(c2nc(-c3ccncc3)[nH]c(=O)c2Cl)CC1 [Compound 47]
5.13 nM	O=C(c1ccco1)N1CCC(c2nc(-c3ccncc3)[nH]c(=O)c2Cl)CC1 [Compound 51]
67.6 nM	COC(=O)[C@@H]1CN(c2nc(-c3ccncc3)[nH]c(=O)c2Cl)CCN1 [Compound 163, methyl (2S)-4-[5-chloro-6-oxo-2-(4-pyridyl)-1H-pyrimidin-4-yl]piperazine-2-carboxylate hydrochloride]
3.55 nM	O=CN1CCCN(c2nc(-c3ccncc3)[nH]c(=O)c2Cl)CC1 [Compound 119]
